Blank lines part the entries; values can stand above or below the compound they belong to. Active and inactive are the calls of the source. No cut-off for these calls is given here. Square brackets hold non-standard residues; d marks the D form. Side chains are listed from the residue outwards. Peptide text beside a SMILES is read from it. * marks the point of attachment. Propanoyl(3-cHex) = O=C(CCC1CCCCC1)*; 2Pal = N[C@@H](Cc1ccccn1)C(=O)O; 3Pal = N[C@@H](Cc1cccnc1)C(=O)O; 4Pal = N[C@@H](Cc1ccncc1)C(=O)O; hSer = N[C@@H](CCO)C(=O)O; Api = NC1(C(=O)O)CCNCC1; Dab = NCC[C@H](N)C(=O)O; Dap = NC[C@H](N)C(=O)O
Experiments:
[1] = molecular target: Neuromedin-U receptor 2 (Mus musculus) (UniProt Q8BZ39); assay: Agonist activity at mouse NMUR2 expressed in human HEK293 cells at 10 nM Fluo-4-AM dye based calcium mobilization assay relative to control; format: functional, cell-based
[2] = molecular target: T1, Neuromedin-U receptor 1 (Homo sapiens) (UniProt Q9HB89); assay: Agonist activity at human NMUR1 expressed in CHO cells at 1 nM by Fluo-4-AM dye based calcium mobilization assay; format: functional, cell-based
T1 sequence (whole entry): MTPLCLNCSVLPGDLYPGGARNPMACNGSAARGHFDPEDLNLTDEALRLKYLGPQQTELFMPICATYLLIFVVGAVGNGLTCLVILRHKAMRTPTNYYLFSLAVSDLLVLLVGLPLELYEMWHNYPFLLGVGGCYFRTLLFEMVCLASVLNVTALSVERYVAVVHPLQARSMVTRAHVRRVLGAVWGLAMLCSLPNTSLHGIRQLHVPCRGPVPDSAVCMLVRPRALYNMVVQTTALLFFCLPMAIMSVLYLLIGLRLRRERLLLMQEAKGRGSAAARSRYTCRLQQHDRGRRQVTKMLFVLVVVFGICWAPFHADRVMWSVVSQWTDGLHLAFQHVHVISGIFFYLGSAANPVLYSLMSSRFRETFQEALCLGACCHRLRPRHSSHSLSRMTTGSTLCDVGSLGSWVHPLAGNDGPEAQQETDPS

[3] = molecular target: T1, Neuromedin-U receptor 1 (Homo sapiens); assay: Agonist activity at human NMUR1 expressed in CHO cells at 100 nM by Fluo-4-AM dye based calcium mobilization assay; format: functional, cell-based
Neuromedin-U receptor 2 [4] = molecular target: T2, Neuromedin-U receptor 2 (Homo sapiens, UniProt Q9GZQ4); assay: Agonist activity at human NMUR2 expressed in CHO cells at 1 nM by Fluo-4-AM dye based calcium mobilization assay; format: functional, cell-based
Neuromedin-U receptor 2 [5] = molecular target: T2, Neuromedin-U receptor 2; assay: Agonist activity at human NMUR2 expressed in CHO cells at 100 nM by Fluo-4-AM dye based calcium mobilization assay; format: functional, cell-based
[6] = molecular target: T1, Neuromedin-U receptor 1 (Homo sapiens); assay: Agonist activity at human NMUR1 expressed in CHO cells at 10 nM by Fluo-4-AM dye based calcium mobilization assay; format: functional, cell-based
Neuromedin-U receptor 2 [7] = molecular target: T2, Neuromedin-U receptor 2; assay: Agonist activity at human NMUR2 expressed in CHO cells at 10 nM by Fluo-4-AM dye based calcium mobilization assay; format: functional, cell-based
[8] = Toxicity in ddY mouse assessed as reduction in body weight gain at 25 to 250 ug intranasal administration; details: in vivo, inhaled_or_intranasal
[9] = Chemical stability of compound in pH 5.5 citrate buffer at 50 uM assessed as compound recovery after 72 hrs by spectrometric analysis; format: physicochemical; details: read-out: Drug recovery
[10] = Toxicity in ddY mouse assessed as reduction in body weight gain at 20 ug ,ip; details: in vivo
Neuromedin-U receptor 2 [11] = molecular target: T2, Neuromedin-U receptor 2; assay: Agonist activity at human NMUR2 expressed in CHO cells by Fluo-4-AM dye based calcium mobilization assay; format: functional, cell-based
[12] = molecular target: Neuromedin-U receptor 2 (Mus musculus) (UniProt Q8BZ39); assay: Agonist activity at mouse NMUR2 expressed in human HEK293 cells Fluo-4-AM dye based calcium mobilization assay; format: functional, cell-based
[13] = Chemical stability of compound in pH 7.4 phosphate buffer at 50 uM assessed as compound recovery after 72 hrs by spectrometric analysis; format: physicochemical; details: read-out: Drug recovery
[14] = Chemical stability of compound in pH 5.5 citrate-posphate buffer at 50 uM assessed as compound recovery after 72 hrs by spectrometric analysis; format: physicochemical; details: citrate-phosphate buffer, read-out: Drug recovery
[15] = Chemical stability of compound in MES buffer pH 5.5 at 100 mM assessed as compound recovery after 72 hrs by spectrometric analysis; format: physicochemical; details: read-out: Drug recovery
[16] = Chemical stability of compound in pH 5.5 acetate buffer at 50 uM assessed as compound recovery after 72 hrs by spectrometric analysis; format: physicochemical; details: read-out: Drug recovery
[17] = Chemical stability of compound in pH 7.4 HEPES buffer at 50 uM assessed as compound recovery after 72 hrs by spectrometric analysis; format: physicochemical; details: read-out: Drug recovery

T2 sequence (Q9GZQ4 whole entry): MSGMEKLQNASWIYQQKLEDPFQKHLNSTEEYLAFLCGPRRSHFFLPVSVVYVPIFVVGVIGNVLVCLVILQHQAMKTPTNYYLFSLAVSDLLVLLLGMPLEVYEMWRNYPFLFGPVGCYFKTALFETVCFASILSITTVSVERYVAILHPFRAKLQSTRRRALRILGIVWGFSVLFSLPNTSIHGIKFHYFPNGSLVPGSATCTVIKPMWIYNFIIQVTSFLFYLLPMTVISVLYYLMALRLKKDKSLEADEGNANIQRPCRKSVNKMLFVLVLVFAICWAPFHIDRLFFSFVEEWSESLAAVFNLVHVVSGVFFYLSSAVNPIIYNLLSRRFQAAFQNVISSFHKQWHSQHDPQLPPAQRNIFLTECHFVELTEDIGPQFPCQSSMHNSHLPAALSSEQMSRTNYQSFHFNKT
Sequence of Neuromedin-U receptor 2 (Mus musculus) (Q8BZ39 whole entry): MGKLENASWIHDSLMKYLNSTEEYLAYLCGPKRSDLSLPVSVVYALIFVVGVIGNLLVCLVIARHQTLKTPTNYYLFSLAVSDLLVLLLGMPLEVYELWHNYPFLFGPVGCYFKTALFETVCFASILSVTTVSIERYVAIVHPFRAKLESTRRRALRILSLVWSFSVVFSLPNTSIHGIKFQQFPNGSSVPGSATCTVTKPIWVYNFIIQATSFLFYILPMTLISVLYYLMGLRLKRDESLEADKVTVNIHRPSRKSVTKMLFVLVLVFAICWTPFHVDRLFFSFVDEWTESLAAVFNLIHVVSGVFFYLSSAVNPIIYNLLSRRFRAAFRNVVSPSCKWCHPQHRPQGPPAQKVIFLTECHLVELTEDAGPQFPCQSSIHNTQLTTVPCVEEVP

Activity [1]: 20 to 40%
Compound: CC(C)C[C@H](NC(=O)CCC1CCCCC1)C(=O)N[C@@H](CC(C)C)C(=O)N[C@@H](Cc1ccncc1)C(=O)N1CCC[C@H]1C(=O)N[C@@H](CCCNC(=N)N)C(=O)N[C@@H](CC(N)=O)C(N)=O ({Propanoyl(3-cHex)}-LL[4Pal]PRN-NH2)

Activity [1]: inactive
Compound: CC(C)C[C@H](NC(=O)CCC1CCCCC1)C(=O)N[C@@H](CC(C)C)C(=O)NC1(C(=O)N2CCC[C@H]2C(=O)N[C@@H](CCCNC(=N)N)C(=O)N[C@@H](CC(N)=O)C(N)=O)CCNCC1 ({Propanoyl(3-cHex)}-LL[Api]PRN-NH2)

Activity [2]: inactive
Activity [3]: inactive
Activity (Neuromedin-U receptor 2 [4]): inactive
Activity (Neuromedin-U receptor 2 [5]): inactive
Compound: CC(C)C[C@H](NC(=O)CCC1CCCCC1)C(=O)N[C@@H](CC(C)C)C(=O)N[C@@H](CC(=O)O)C(=O)N1CCC[C@H]1C(=O)N[C@@H](CCCNC(=N)N)C(=O)N[C@@H](CC(N)=O)C(N)=O ({Propanoyl(3-cHex)}-LLDPRN-NH2)

Activity [6]: inactive
Activity (Neuromedin-U receptor 2 [7]): inactive
Compound: CC(C)C[C@H](NC(=O)CCC1CCCCC1)C(=O)N[C@@H](CC(C)C)C(=O)N[C@@H](CS)C(=O)N1CCC[C@H]1C(=O)N[C@@H](CCCNC(=N)N)C(=O)N[C@@H](CC(N)=O)C(N)=O ({Propanoyl(3-cHex)}-LLCPRN-NH2)

remaining at 72 h, 50 µM [9]: 98%
Activity (Neuromedin-U receptor 2 [11]): Dose-dependent effect
EC50 (Neuromedin-U receptor 2 [11]): 2.2 nM
Activity [12]: Active
remaining at 72 h, 50 µM [13]: 95%
Activity [1]: 100%
Compound: CC(C)C[C@H](NC(=O)CCC1CCCCC1)C(=O)N[C@@H](CC(C)C)C(=O)N[C@@H](CCN)C(=O)N1CCC[C@H]1C(=O)N[C@@H](CCCNC(=N)N)C(=O)N[C@@H](CC(N)=O)C(N)=O ({Propanoyl(3-cHex)}-LL[Dab]PRN-NH2)
Activity [8]: Toxic
Activity [10]: Toxic

Activity [6]: inactive
Activity (Neuromedin-U receptor 2 [7]): inactive
Compound: CC(C)C[C@H](NC(=O)CCC1CCCCC1)C(=O)N[C@@H](CC(C)C)C(=O)N[C@H](C(=O)N1CCC[C@H]1C(=O)N[C@@H](CCCNC(=N)N)C(=O)N[C@@H](CC(N)=O)C(N)=O)[C@H](C)O

Activity [1]: 20 to 40%
Compound: CC(C)C[C@H](NC(=O)CCC1CCCCC1)C(=O)N[C@@H](CC(C)C)C(=O)N[C@@H](Cc1cccnc1)C(=O)N1CCC[C@H]1C(=O)N[C@@H](CCCNC(=N)N)C(=O)N[C@@H](CC(N)=O)C(N)=O ({Propanoyl(3-cHex)}-LL[3Pal]PRN-NH2)

Activity [6]: inactive
Activity (Neuromedin-U receptor 2 [7]): inactive
Compound: CC(C)C[C@H](NC(=O)CCC1CCCCC1)C(=O)N[C@@H](CC(C)C)C(=O)N[C@H](C(=O)N1CCC[C@H]1C(=O)N[C@@H](CCCNC(=N)N)C(=O)N[C@@H](CC(N)=O)C(N)=O)[C@@H](C)O

Activity [2]: inactive
Activity (Neuromedin-U receptor 2 [4]): inactive
Compound: CC(C)C[C@H](NC(=O)CCC1CCCCC1)C(=O)N[C@@H](CC(C)C)C(=O)N[C@@H](CC(N)=O)C(=O)N1CCC[C@H]1C(=O)N[C@@H](CCCNC(=N)N)C(=O)N[C@@H](CC(N)=O)C(N)=O ({Propanoyl(3-cHex)}-LLNPRN-NH2)

Activity [6]: inactive
Activity (Neuromedin-U receptor 2 [7]): inactive
Compound: CC(C)C[C@H](NC(=O)CCC1CCCCC1)C(=O)N[C@@H](CC(C)C)C(=O)N[C@@H](CCO)C(=O)N1CCC[C@H]1C(=O)N[C@@H](CCCNC(=N)N)C(=O)N[C@@H](CC(N)=O)C(N)=O ({Propanoyl(3-cHex)}-LL[hSer]PRN-NH2)

Activity [3]: 6%
Activity (Neuromedin-U receptor 2 [5]): 6%
Compound: CC(C)C[C@H](NC(=O)CCC1CCCCC1)C(=O)N[C@@H](CC(C)C)C(=O)NCC[C@H](N)C(=O)N1CCC[C@H]1C(=O)N[C@@H](CCCNC(=N)N)C(=O)N[C@@H](CC(N)=O)C(N)=O (H-[Dab]([Leu-Leu-Propanoyl(3-cHex)])PRN-NH2)

Activity [1]: 20 to 40%
Compound: CC(C)C[C@H](NC(=O)CCC1CCCCC1)C(=O)N[C@@H](CC(C)C)C(=O)N[C@@H](Cc1ccccn1)C(=O)N1CCC[C@H]1C(=O)N[C@@H](CCCNC(=N)N)C(=O)N[C@@H](CC(N)=O)C(N)=O ({Propanoyl(3-cHex)}-LL[2Pal]PRN-NH2)

Activity [2]: inactive
Activity [3]: Active
Activity (Neuromedin-U receptor 2 [4]): inactive
Activity (Neuromedin-U receptor 2 [5]): Active
Compound: CC(C)C[C@H](NC(=O)CCC1CCCCC1)C(=O)N[C@@H](CC(C)C)C(=O)N[C@@H](CO)C(=O)N1CCC[C@H]1C(=O)N[C@@H](CCCNC(=N)N)C(=O)N[C@@H](CC(N)=O)C(N)=O ({Propanoyl(3-cHex)}-LLSPRN-NH2)

remaining at 72 h, 50 µM [9]: 81%
remaining at 72 h, 50 µM [14]: 64%
remaining at 72 h [15]: 93%
remaining at 72 h, 50 µM [13]: 87%
remaining at 72 h, 50 µM [16]: 89%
remaining at 72 h, 50 µM [17]: 92%
Compound: CC(C)C[C@H](NC(=O)CCC1CCCCC1)C(=O)N[C@@H](CC(C)C)C(=O)N[C@@H](CN)C(=O)N1CCC[C@H]1C(=O)N[C@@H](CCCNC(=N)N)C(=O)N[C@@H](CC(N)=O)C(N)=O ({Propanoyl(3-cHex)}-LL[Dap]PRN-NH2)

Activity [6]: inactive
Activity (Neuromedin-U receptor 2 [7]): inactive
Compound: COC[C@H](NC(=O)[C@H](CC(C)C)NC(=O)[C@H](CC(C)C)NC(=O)CCC1CCCCC1)C(=O)N1CCC[C@H]1C(=O)N[C@@H](CCCNC(=N)N)C(=O)N[C@@H](CC(N)=O)C(N)=O ({Propanoyl(3-cHex)}-LLS(Me)PRN-NH2)
